Here are results for nine compounds from article PMC9696832, “Pyrazole-Based Thrombin Inhibitors with a Serine-Trapping Mechanism of Action: Synthesis and Biological Activity” (Pharmaceuticals, 2022).

Each structure is given as a SMILES string. Several values for one entry are separate records, joined by “and”; a condition that tells them apart may be missing. Equal values may be shown once. Read-outs that look alike come from different tables or passages of the source.

Data set [1] concerns human pooled plasma. Briefly: In vitro plasma coagulation assay (aPTT). As to conditions: tested at 200 μM. Format: biochemical. Here is the method: (§1) In vitro plasma coagulation assays (aPTT and PT). All measurements were performed using commercially available citrated (3.8%) human pooled plasma (Dunn Labortechnik GmbH, Germany) on a semi-automated coagulometer (Thrombotimer-2, Behnk Elektronik, Germany) according to the manufacturer instructions as previously reported. For aPTT measurement, plasma (100 μL) was placed into the incubation cuvettes of the instrument and incubated for 2 min at 37 °C. Then, test compound solution (10 μL) or solvent (DMSO, 10 μL) was added with a pipette. After 1 min of incubation, 100 μL of prewarmed (37 °C) aPTT reagent (Convergent Technologies, Germany) was added and incubated for additional 2 min. The cuvettes were transferred to a measuring position, the coagulation was initiated by addition of 100 μL of CaCl2 solution (25 mM, prewarmed at 37 °C, Convergent Technologies, Germany) and the clotting time was recorded. For PT assays, plasma (100 μL) was incubated for 2 min at 37 °C. Then, test compound solution (10 μL) or solvent (DMSO, 10 μL) was added with a pipette. After 3 min of incubation, the cuvettes were transferred to a measuring position, the coagulation was initiated by addition of 100 μL of PT assay reagent already containing CaCl2 (prewarmed at 37 °C, Biolabo, France) and the clotting time was recorded.

For data set [2], the system named is human pooled plasma. Kind of data set: In vitro plasma coagulation assay (PT). The format is biochemical. Particulars: tested at 200 μM. Here is the method:
as §1

In a further data set the test system is human chymotrypsin. Briefly: Serine protease inhibition assay, fluorogenic substrate: chymotrypsin. The format is biochemical. As to conditions: for IC50: screened at 5 μM, IC50 in triplicate for actives, [S]0 = 25 µM, read-out: Serine Protease IC50 ± SD, Chymotrypsin. On the procedure:
(§2) Serine protease inhibition assays. The inhibitory activity of synthesized compounds towards thrombin, FXIIa, FXa, FXIa, plasmin, plasma kallikrein, chymotrypsin, and trypsin was measured by quantifying the hydrolysis rate of the fluorogenic substrate as reported previously. Briefly, the activity was tested in buffer (10 mM Tris-Cl, 150 mM NaCl, 10 mM MgCl2·6H2O, 1 mM CaCl2·2H2O, 0.1% w/v BSA, 0.01% v/v Triton-X100, pH = 7.4) utilizing clear flat-bottom, black polystyrene 96 well-plates. […] Dilutions of test-compounds ranging from 2 nM to 32 µM (final concentrations) in DMSO were prepared. The fluorogenic substrate solution was added into the wells followed by the addition of 2 µL of test-compounds solution, and the reaction was triggered by addition of the enzyme solution (final testing volume–152 µL). In case of blank (substrate + buffer) and control (substrate + enzyme) wells, 2 µL of DMSO was added instead of the test-compounds’ solution. Fluorescence intensity was measured with Microplate Reader Mithras LB 940 (Berthold Technologies, excitation at 355 nm, emission at 460 nm) for a period of 1 h (thrombin, FXIIa, FXa, FXIa, and trypsin), 30 min (plasma kallikrein, chymotrypsin), or 15 min (plasmin) with a read every minute. The reactions were performed at 25 °C. To derive IC50 values, endpoint RFU (single fluorescence reading) was used. Sigmoidal curves were prepared in GraphPad Prism software and IC50 values were derived from the fitted curves.

The target of a further data set is T1, human Factor Xa (Homo sapiens, UniProt P00742).
T1 construct: human Factor Xa, HFXA; purchased Molecular Innovations HFXA
T1 sequence (P00742 235-488 limits assumed): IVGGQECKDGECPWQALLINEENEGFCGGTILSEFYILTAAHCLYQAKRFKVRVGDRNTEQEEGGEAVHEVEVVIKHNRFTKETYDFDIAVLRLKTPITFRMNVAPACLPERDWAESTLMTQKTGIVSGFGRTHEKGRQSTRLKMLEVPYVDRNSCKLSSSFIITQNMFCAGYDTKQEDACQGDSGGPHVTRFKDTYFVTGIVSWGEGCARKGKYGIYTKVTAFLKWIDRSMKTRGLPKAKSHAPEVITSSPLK
T1 sequence (P00742 41-179 limits assumed): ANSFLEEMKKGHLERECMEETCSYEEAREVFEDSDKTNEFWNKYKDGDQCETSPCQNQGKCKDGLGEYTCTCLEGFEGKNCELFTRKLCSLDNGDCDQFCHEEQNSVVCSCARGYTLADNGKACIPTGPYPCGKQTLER
Kind of data set: Serine protease inhibition assay, fluorogenic substrate: FXa. As to conditions: for IC50: screened at 5 μM, IC50 in triplicate for actives, [S]0 = 25 µM, read-out: Serine Protease IC50 ± SD, FXa. The format is biochemical. Here is the method: as §2

The target of data set [3] is T2, human α-thrombin (Homo sapiens, UniProt P00734).
T2 construct: human α-thrombin (active) protein; purchased antibodies-online ABIN2127880
Kind of data set: Serine protease inhibition assay, fluorogenic substrate: thrombin. Format: biochemical.
Procedure: Serine protease inhibition assays. The inhibitory activity of synthesized compounds towards thrombin, FXIIa, FXa, FXIa, plasmin, plasma kallikrein, chymotrypsin, and trypsin was measured by quantifying the hydrolysis rate of the fluorogenic substrate as reported previously [14, 17]. Briefly, the activity was tested in buffer (10 mM Tris-Cl, 150 mM NaCl, 10 mM MgCl2·6H2O, 1 mM CaCl2·2H2O, 0.1% w/v BSA, 0.01% v/v Triton-X100, pH = 7.4) utilizing clear flat-bottom, black polystyrene 96 well-plates. […] The fluorogenic substrate solution was added into the wells followed by the addition of 2 µL of test-compounds solution, and the reaction was triggered by addition of the enzyme solution (final testing volume–152 µL). In case of blank (substrate + buffer) and control (substrate + enzyme) wells, 2 µL of DMSO was added instead of the test-compounds’ solution. […] To derive IC50 values, endpoint RFU (single fluorescence reading) was used. Sigmoidal curves were prepared in GraphPad Prism software and IC50 values were derived from the fitted curves [14, 17].

The next data set has as its target T3, human β-FXIIa (Homo sapiens, UniProt P00748).
T3 construct: human β-FXIIa, HFXIIAB; purchased Molecular Innovations HFXIIAB
Kind of data set: Serine protease inhibition assay, fluorogenic substrate: FXIIa. Particulars: for IC50: read-out: Serine Protease IC50 ± SD, FXIIa. Format: biochemical. On the procedure:
as §2

Another data set deals with T4, human Factor XIa (Homo sapiens, UniProt P03951).
T4 construct: human Factor XIa, HFXIA; purchased Molecular Innovations HFXIA
T4 sequence (P03951 388-625 limits assumed): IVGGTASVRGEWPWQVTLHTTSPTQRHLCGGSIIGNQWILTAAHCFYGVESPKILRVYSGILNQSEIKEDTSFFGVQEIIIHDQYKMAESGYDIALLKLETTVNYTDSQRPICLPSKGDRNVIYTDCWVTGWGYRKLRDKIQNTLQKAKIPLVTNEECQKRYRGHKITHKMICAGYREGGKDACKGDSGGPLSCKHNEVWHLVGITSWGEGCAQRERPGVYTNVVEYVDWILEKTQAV
T4 sequence (P03951 19-387 limits assumed): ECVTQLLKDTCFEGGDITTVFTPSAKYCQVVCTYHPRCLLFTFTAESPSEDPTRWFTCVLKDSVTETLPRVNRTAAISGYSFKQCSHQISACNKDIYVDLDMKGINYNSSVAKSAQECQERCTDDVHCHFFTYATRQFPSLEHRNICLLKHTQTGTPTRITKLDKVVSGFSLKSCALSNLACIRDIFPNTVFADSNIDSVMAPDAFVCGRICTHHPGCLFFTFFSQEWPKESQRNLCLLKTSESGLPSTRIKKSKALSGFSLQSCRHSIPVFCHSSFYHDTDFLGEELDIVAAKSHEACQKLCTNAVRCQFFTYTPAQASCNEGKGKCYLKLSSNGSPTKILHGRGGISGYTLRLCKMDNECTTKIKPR
Briefly: Serine protease inhibition assay, fluorogenic substrate: FXIa. The format is biochemical. Here is the method:
as §2

A further data set addresses T5, human plasma kallikrein (Homo sapiens, UniProt P03952).
T5 construct: human plasma kallikrein, >94% purity; purchased Innovative Research
Kind of data set: Serine protease inhibition assay, fluorogenic substrate: plasma kallikrein. The format is biochemical. Particulars: screened at 5 μM; IC50 in triplicate for actives; [S]0 = 25 µM; read-out: Serine Protease IC50 ± SD, PK (plasma kallikrein). On the procedure: as §2

Another data set addresses T6, human plasmin (Homo sapiens, UniProt P00747).
T6 construct: human plasmin, >95% purity; purchased Innovative Research
Kind of data set: Serine protease inhibition assay, fluorogenic substrate: plasmin. Format: biochemical. As to conditions: screened at 5 μM; [S]0 = 25 µM; read-out: Serine Protease IC50 ± SD, Plasmin. On the procedure:
as §2

For a further data set, the target named is T7, porcine trypsin (Sus scrofa, UniProt P00761).
T7 construct: porcine trypsin; Merck; purchased Merck
T7 sequence (P00761 9-231): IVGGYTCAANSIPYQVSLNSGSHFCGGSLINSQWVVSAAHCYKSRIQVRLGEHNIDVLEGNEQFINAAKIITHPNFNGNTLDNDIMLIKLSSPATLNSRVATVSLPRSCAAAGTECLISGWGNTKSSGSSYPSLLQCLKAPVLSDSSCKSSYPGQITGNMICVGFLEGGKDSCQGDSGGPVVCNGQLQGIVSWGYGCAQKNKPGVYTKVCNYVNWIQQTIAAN
Kind of data set: Serine protease inhibition assay, fluorogenic substrate: trypsin. Format: biochemical. As to conditions: screened at 5 μM; [S]0 = 25 µM; read-out: Serine Protease IC50 ± SD, Trypsin. On the procedure:
as §2

Data set [4] addresses T2, human α-thrombin. Kind of data set: Mass-shift assay of the covalent thrombin-inhibitor complex by LC/ESI-MS. Particulars: 79 μM inhibitor, preincubated 15 min, ESI(+); corresponds to pivaloyl moiety. On the procedure:
Analysis of the covalent thrombin-inhibitor complex by LC/ESI-MS. The analysis of covalent thrombin-inhibitor complex was performed utilizing LC/ESI-MS as reported previously with variations. Briefly, 2 µL of the stock solution (128 µM) of human α-thrombin (active) protein (ABIN2127880, >95% purity; antibodies-online) were diluted with 68 µL of purified water. […] Reversed phase liquid chromatography was performed using a Discovery BIO Wide Pore C5 column (100 × 2.1 mm, 3 µm particle size, 300 Å pore size) from Supelco (Bellefonte, PA, USA). For chromatographic analysis of the sample solutions, 0.1% formic acid in purified water (A) and 0.1% formic acid in acetonitrile (B) were used as mobile phase. The following gradient of 15 min in total was applied: starting with 5% B, B is increased up to 40% within 3 min. After holding 40% B for 1.5 min, B is decreased to 5% within 0.5 min and kept at 5% for 1 min. B is then increased to 95% within 4 min and kept at this value for 1 min. After decreasing B to 5% within 1 min, this ratio is kept for 3 min. […] The enzyme-inhibitor complex was analyzed in the positive ion mode using the following ESI-MS parameters: The mass range was set to m/z 1000–4000, nebulizer gas (nitrogen) was 1.6 bar, dry gas (nitrogen) was 9.0 L/min, dry gas temperature was 200 °C, Funnel 1 RF was 450 V, pre pulse storage time was 30 µs and transfer time was 100 µs. […]

The mark [5] stands for this setting: read-out: Serine Protease IC50 ± SD, Thrombin.
Where [6] appears, read: screened at 5 μM, IC50 in triplicate for actives, [S]0 = 25 µM, read-out: Serine Protease IC50 ± SD, FXIa.
[7] abbreviates: [S]0 = 25 µM Boc-Val-Pro-Arg-AMC, Km = 18 ± 1 µM, triplicate, 25 °C, read-out: Serine Protease IC50 ± SD, Thrombin.

T6 sequence (P00747 581-810 limits assumed): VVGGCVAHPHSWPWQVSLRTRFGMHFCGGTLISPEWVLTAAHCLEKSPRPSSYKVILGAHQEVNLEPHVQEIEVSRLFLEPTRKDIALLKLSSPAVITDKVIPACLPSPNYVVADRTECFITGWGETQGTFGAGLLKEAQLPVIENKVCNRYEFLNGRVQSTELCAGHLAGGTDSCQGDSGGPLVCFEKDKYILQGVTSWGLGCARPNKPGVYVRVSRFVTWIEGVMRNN
T6 sequence (P00747 97-580 limits assumed): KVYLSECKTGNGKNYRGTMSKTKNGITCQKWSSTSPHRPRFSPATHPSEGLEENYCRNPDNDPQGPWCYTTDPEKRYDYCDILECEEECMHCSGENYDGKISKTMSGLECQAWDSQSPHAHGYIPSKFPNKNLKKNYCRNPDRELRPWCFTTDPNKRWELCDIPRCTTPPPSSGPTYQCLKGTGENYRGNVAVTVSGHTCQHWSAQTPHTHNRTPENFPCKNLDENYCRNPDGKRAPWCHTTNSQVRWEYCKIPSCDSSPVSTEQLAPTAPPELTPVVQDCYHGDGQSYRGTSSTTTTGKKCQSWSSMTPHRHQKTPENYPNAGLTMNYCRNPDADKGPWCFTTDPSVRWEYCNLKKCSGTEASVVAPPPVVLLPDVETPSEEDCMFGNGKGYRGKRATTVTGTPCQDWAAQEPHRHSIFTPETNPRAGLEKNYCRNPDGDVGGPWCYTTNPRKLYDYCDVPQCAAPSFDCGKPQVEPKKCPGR
T5 sequence (P03952 391-638 limits assumed): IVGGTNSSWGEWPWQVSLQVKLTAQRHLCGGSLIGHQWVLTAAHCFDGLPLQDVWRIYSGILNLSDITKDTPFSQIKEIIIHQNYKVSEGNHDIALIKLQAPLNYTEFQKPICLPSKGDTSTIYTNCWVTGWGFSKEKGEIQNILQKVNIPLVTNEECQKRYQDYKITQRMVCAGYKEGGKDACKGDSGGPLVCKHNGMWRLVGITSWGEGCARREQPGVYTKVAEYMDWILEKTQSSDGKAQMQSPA
T5 sequence (P03952 20-390 limits assumed): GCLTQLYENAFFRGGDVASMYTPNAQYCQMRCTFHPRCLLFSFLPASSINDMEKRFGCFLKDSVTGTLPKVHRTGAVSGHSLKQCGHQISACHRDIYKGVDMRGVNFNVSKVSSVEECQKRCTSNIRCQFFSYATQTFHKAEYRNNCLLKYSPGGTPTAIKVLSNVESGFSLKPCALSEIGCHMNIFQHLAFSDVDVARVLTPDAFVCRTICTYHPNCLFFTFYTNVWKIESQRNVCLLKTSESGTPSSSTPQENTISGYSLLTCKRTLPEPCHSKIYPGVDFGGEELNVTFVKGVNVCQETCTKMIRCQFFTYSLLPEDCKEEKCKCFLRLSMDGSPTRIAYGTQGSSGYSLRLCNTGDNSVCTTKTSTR
T3 sequence (P00748 373-615 limits assumed, other chains not shown): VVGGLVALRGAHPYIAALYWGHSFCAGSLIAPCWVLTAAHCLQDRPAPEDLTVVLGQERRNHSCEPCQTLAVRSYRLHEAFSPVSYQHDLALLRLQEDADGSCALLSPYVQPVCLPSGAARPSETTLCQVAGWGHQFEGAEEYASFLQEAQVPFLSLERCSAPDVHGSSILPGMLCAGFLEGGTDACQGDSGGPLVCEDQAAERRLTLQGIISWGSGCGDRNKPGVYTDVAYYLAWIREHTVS

Consider `O=C(c1ccccc1)n1nc(-c2ccccc2)c(F)c1NCc1ccc(Cl)s1` [34b, (5-(((5-chlorothiophen-2-yl)methyl)amino)-4-fluoro-3-phenyl-1H-pyrazol-1-yl)(phenyl)methanone], for which the “aPTT, fold increase compared to DMSO” value with human pooled plasma [1] is 1.0 fold. Moreover, the “PT, fold increase compared to DMSO” value with human pooled plasma [2] came out at 1.1 fold. Further, the half-inhibitory concentration (IC50) is 1.15 ± 0.11 µM in the data set on human chymotrypsin; over 5 µM at human Factor Xa; 0.071 ± 0.003 µM on human α-thrombin [3] (setting [5]); over 5 µM on human β-FXIIa; over 5 µM on human Factor XIa (setting [6]); over 5 µM at human plasma kallikrein. Also, the half-inhibitory concentration (IC50) at human plasmin and on porcine trypsin was over 5 µM throughout.

The compound `CC(C)(C)C(=O)n1nc(-c2cccnc2)cc1NCc1ccc(Cl)s1` [24e, 1-(5-{[(5-chlorothiophen-2-yl)methyl]amino}-3-(pyridin-3-yl)-1H-pyrazol-1-yl)-2,2-dimethylpropan-1-one] registered a melting point of 96 to 97 °C. Further, the “mass-shift of thrombin after incubation with inhibitor (Δm)” value on human α-thrombin [4] is 84.5 Da and 84.53 Da. Also, the “aPTT, fold increase compared to DMSO” value in the data set with human pooled plasma [1] was determined as 1.1 fold. Besides, the “PT, fold increase compared to DMSO” value with human pooled plasma [2] worked out at 1.1 fold. The IC50 with human chymotrypsin was 0.875 ± 0.059 µM. The “fold higher dose for 50% inhibition of chymotrypsin than for thrombin” value in the data set with human chymotrypsin (selectivity chymotrypsin vs thrombin) is listed as 55 fold. Moreover, the IC50 on human Factor Xa is over 5 µM. The “fold more potent thrombin inhibitor than 3-phenyl-substituted analog 24g” value at human α-thrombin [3] (IC50 16 nM vs. 419) is listed as 26 fold. The IC50 at human α-thrombin [3] (setting [7]) is 0.016 ± 0.001 µM. In addition, the IC50 on human β-FXIIa was over 5 µM. Further, at human Factor XIa (setting [6]), the IC50 was over 5 µM. Further, the IC50 at human plasma kallikrein was over 5 µM. In addition, at human plasmin, the IC50 was over 5 µM. In addition, the IC50 on porcine trypsin was over 5 µM.

On to `O=C(c1ccccc1)n1nc(-c2cccnc2)cc1NCc1ccc(Cl)s1` [compound 25, (5-{[(5-chlorothiophen-2-yl)methyl]amino}-3-(pyridin-3-yl)-1H-pyrazol-1-yl)(phenyl)methanone], for which the “aPTT, fold increase compared to DMSO” value with human pooled plasma [1] is reported as 1.1 fold. The “PT, fold increase compared to DMSO” value in the data set on human pooled plasma [2] was 1.2 fold. Also, the IC50 was 0.242 ± 0.013 µM with human chymotrypsin; about 5 µM on human Factor Xa; 0.018 ± 0.001 µM on human α-thrombin [3] (setting [7]); over 5 µM on human β-FXIIa; 1 µM at human Factor XIa (read-out: FXIa IC50); 1.02 ± 0.09 µM at human Factor XIa (setting [6]). Besides, the IC50 on human plasma kallikrein is 0.639 ± 0.156 µM; on human plasmin, over 5 µM; at porcine trypsin, over 5 µM. At human Factor Xa (at 5 μM), testing at 5 µM gave an inhibition of 54%.

`COc1ccc(CNc2cc(-c3cccnc3)nn2C(=O)C(C)(C)C)cc1` [24b, 1-{5-[(4-methoxybenzyl)amino]-3-(pyridin-3-yl)-1H-pyrazol-1-yl}-2,2-dimethylpropan-1-one]: the melting point worked out at 130 °C. Besides, the IC50 at human α-thrombin [3] (setting [7]) turned out to be 1.282 ± 0.009 µM. Further, at human α-thrombin [3] (read-out: thrombin IC50), the half-inhibitory concentration (IC50) is about 1.3 µM. Further, on human β-FXIIa, the IC50 is over 5 µM.

Compound `CC(C)(C)C(=O)n1nc(C2CCCCC2)cc1NCc1ccccc1` [24h, 1-[5-(benzylamino)-3-cyclohexyl-1H-pyrazol-1-yl]-2,2-dimethylpropan-1-one] showed a melting point of 47 °C. For the same compound, the “thrombin inhibitory properties (in words)” value at human α-thrombin [3] was “inactive”. In addition, on human α-thrombin [3] (setting [7]), the IC50 is over 5 µM. Also, on human β-FXIIa, the “FXIIa inhibitory properties (in words)” value is “inactive” and the 50% inhibitory concentration (IC50) is over 5 µM.

`O=c1c2ccccc2n(Cc2ccco2)c2cc(-c3cccnc3)nn12` [10d, 4-[(furan-2-yl)methyl]-2-(pyridin-3-yl)pyrazolo[5,1-b]quinazolin-9(4H)-one] registered a melting point of 272 °C. Also, at human α-thrombin [3] (setting [5]), the IC50 was over 5 µM. Moreover, the IC50 on human β-FXIIa is over 5 µM.

Turning to `O=c1c2ccccc2n(Cc2ccccc2)c2cc(C3CCCCC3)nn12` [10h, 4-benzyl-2-cyclohexylpyrazolo[5,1-b]quinazolin-9(4H)-one], the melting point fell in the range of 180 to 181 °C. Also, on human α-thrombin [3] (setting [5]), the IC50 was over 5 µM. Also, on human β-FXIIa, the IC50 is over 5 µM.

The compound `COc1ccc(CNc2cc(-c3cccnc3)nn2C(=O)c2ccccc2I)cc1` [9b, (2-iodophenyl){5-[(4-methoxybenzyl)amino]-3-(pyridin-3-yl)-1H-pyrazol-1-yl}methanone] had a melting point of 136 to 137 °C. For the same compound, at human α-thrombin [3] (setting [5]), the half-inhibitory concentration (IC50) was over 5 µM. Also, the 50% inhibitory concentration (IC50) on human β-FXIIa was over 5 µM.

`CC(C)(C)C(=O)n1nc(-c2ccccc2)c(F)c1NCc1ccc(Cl)s1` [34a, 1-(5-(((5-chlorothiophen-2-yl)methyl)amino)-4-fluoro-3-phenyl-1H-pyrazol-1-yl)-2,2-dimethylpropan-1-one]: the “aPTT, fold increase compared to DMSO” value in the data set with human pooled plasma [1] came to 1.0 fold. Also, the “PT, fold increase compared to DMSO” value in the data set with human pooled plasma [2] amounted to 1.1 fold. The IC50 in the data set on human chymotrypsin was over 5 µM; on human Factor Xa, over 5 µM; on human α-thrombin [3] (setting [7]), 0.08 ± 0.002 µM; at human β-FXIIa it was over 5 µM; on human Factor XIa (setting [6]) it was over 5 µM; on human plasma kallikrein it was over 5 µM. Moreover, the IC50 at human plasmin and on porcine trypsin was over 5 µM each time.

As usually defined, the IC50 is the concentration that gives 50% inhibition. What is called melting point is the temperature of the solid-liquid transition. What is called inhibition is the percentage by which the read-out fell short of the control. A high value points to a strong effect.
